This note sets out measurements from patent US10111854B2, “Synthesis and use of amine-containing flavonoids as potent anti-leishmanial agents” (The Hong Kong Polytechnic University, priority 2014, dated 2018).

For data set [1], the system named is L. amazonensis LV78 promastigotes. The data set can be described thus: Anti-promastigote activity (MTS assay), L. amazonensis LV78. Format: cell-based. As to conditions: Leishmania amazonensis, 72 hours. As for the experimental part:
(§1) Promastigotes of visceral L. donovani Ld39 and LdHU3, and cutaneous L. amazonensis LV78, L. braziliensis UA847 and L. major FV1 were employed in the study. All strains were cultured in Schneider's Drosophila Medium (Invitrogen), pH 6.9 supplemented with 10% (v/v) heat inactivated fetal bovine serum (Hyclone) with 4 mM glutamine (Sigma) and 25 μg/mL gentamicin solution (Invitrogen) at 27° C. for 4 days. RAW264.7 cells were cultured in supplemented DMEM media with 10% heat inactivated FBS and 100 U/mL penicillin and 100 μg/mL of streptomycin. They were maintained at 37° C. in a humidified atmosphere with 5% CO2. The cells were split constantly after a confluent monolayer has been formed. The cells were harvested by a cell scraper.
(§2) Anti-promastigote activity was determined according to previous procedures (1) by Cell Titer 96® Aqueous Assay (Promega) that employed a tetrazolium compound. Promastigotes were seeded into 96-well flat bottom microtiter plate at 1×10^5 cells per well in a final volume of 100 μL medium and incubated with a series of concentrations of synthetic FM. Parasites were incubated at 27° C. for 72 hours. After 72 hours of incubation, 10 μL of MTS:PMS mixture [MTS:2-(4,5-Dimethylthiazol-2-yl-)-5-[3-(carboxymethoxy)phenyl]-2-(4-sulfophenyl)-2H-tetrazolium); PMS: phenazine methosulfate both purchased from Sigma] was added into each well of microtiter plate. The plate was then incubated at 27° C. for 4 hours for color development. After 4 hours of incubation, the OD values were determined at 490 nm using automatic microtiter plate reader (Bio-Rad).
(§3) IC50 values of known antileishmanials and the amine-containing flavonoid monomers of the present invention to promastigotes (L. amazonensis LV78, L major FV1, L. donovani HU3, L. donovani 39), macrophages (Raw 264.7 and PEM) and mouse fibroblast (L929) were determined. The anti-promastigotes activities and cytotoxicity of the amine-containing flavonoid monomers of the invention are shown in Table 1.
A general note: Formazan colour is commonly taken as a measure of viable cells.

The test system of data set [2] is L. donovani HU3 promastigotes. The data set can be described thus: Anti-promastigote activity (MTS assay), L. donovani HU3. Format: cell-based. As to conditions: Leishmania donovani, 72 hours. As for the experimental part:
as §1, §2, §3

Data set [3] can be described thus: Cytotoxicity, L929 fibroblasts. Format: cell-based, mouse. As to conditions: mouse. As for the experimental part: as §3
Data set [4] relates to L. amazonensis LV78 amastigotes. As to the kind of experiment: Anti-amastigote activity in infected PEM, L. amazonensis LV78. Format: cell-based. As to conditions: for IC50: Leishmania amazonensis, 72 h, infected PEM, 3 days, Giemsa. As for the experimental part:
(§4) Mouse peritoneal elicited macrophages (PEM) were obtained as previously described (2). A round cover slip (12 mm in diameter) was placed into each well of 24-well culture plate. Mouse PEM were resuspended in supplemented DMEM media containing 10% heat inactivated FBS (v/v), 100 U/mL penicillin and 100 μg/mL streptomycin and seeded into each well at a cell density of 1×10^5 cells per 500 μL. Macrophages were allowed to attach overnight. Non-adherent cells were removed by gentle washing with un-supplemented DMEM media twice. Adherent macrophages were infected with late-log promastigotes at a parasite-to-macrophage ratio of 20:1 overnight at 37° C. with 5% CO2. Non-internalized promastigotes were removed by washing twice with un-supplemented DMEM media. Infected macrophages were further incubated in 500 μL of supplemented DMEM media in the presence or absence of FM for 72 hours at 37° C. After incubation, cover slips were stained with Giemsa and the percentage of macrophages infected and number of amastigotes per 100 macrophages was enumerated.
(§5) PEM cells were infected with late-log promastigotes (L. amazonensis LV78, L. braziliensis UA847, L. donovani HU3, L. donovani 39) for 24 hr at 37° C. Infected macrophages were then treated with various antileishmanials and incubated for 3 days at 37° C. After 3 days, the cover slips were stained with Giemsa. The number of amastigotes per 100 macrophages were determined and used to calculate IC50 values.

Data set [5] has as its system L. donovani HU3 amastigotes. The data set can be described thus: Anti-amastigote activity in infected PEM, L. donovani HU3. As to conditions: Leishmania donovani, 72 h; infected PEM, 3 days, Giemsa; SSG-sensitive. The class given is cell-based. As for the experimental part:
as §4, §5

For data set [6], the system named is L. amazonensis and L. donovani HU3 promastigotes and amastigotes. The data set can be described thus: Anti-promastigote and anti-amastigote activity of FM09, FM01 and FM05 derivatives. The class given is cell-based, Leishmania. To be noted: stage and strain not specified; read-out: IC50, anti-promastigote and anti-amastigote activity (Table 3C). The protocol:
Derivatives of FM09, FM01 and FM05 were synthesized and their anti-promastigote and anti-amastigote activity were determined (Table 3C). Many amine-containing flavonoid monomers have IC50 less than 5 μM, including FM09a, FM09b, FM09c, FM09e, FM09h, FM09i, FM09k, FM09l, FM01b and FM05b.

Data set [7] deals with L. major FV1 promastigotes. As to the kind of experiment: Anti-promastigote activity (MTS assay), L. major FV1. To be noted: Leishmania major, 72 hours. The class given is cell-based. The protocol:
as §1, §2, §3

Data set [8] deals with L. donovani Ld39 promastigotes. As to the kind of experiment: Anti-promastigote activity (MTS assay), L. donovani Ld39. To be noted: Leishmania donovani, 72 hours. The class given is cell-based. The protocol: as §1, §2, §3
Data set [9] relates to L. braziliensis UA847 amastigotes. The data set can be described thus: Anti-amastigote activity in infected PEM, L. braziliensis UA847. Format: cell-based. To be noted: Leishmania braziliensis, 72 h, 3 days, Giemsa, read-out: Anti-amastigote activity IC50, L. baziliensis UA847. The protocol:
as §4, §5

Data set [10] has as its system L. donovani Ld39 amastigotes (SSG-resistant). The data set can be described thus: Anti-amastigote activity in infected PEM, L. donovani Ld39. Format: cell-based. As to conditions: for IC50: Leishmania donovani, 72 h, infected PEM, 3 days, Giemsa, SSG-resistant. The protocol: as §4, §5
Data set [11] can be described thus: Cytotoxicity, peritoneal elicited macrophages (PEM). To be noted: mouse, Cytotoxicity IC50, PEM. The class given is cell-based, mouse. As for the experimental part:
as §4, §3

In data set [12] the test system is promastigotes (L. amazonensis LV78, L major FV1, L. donovani HU3, L. donovani 39). As to the kind of experiment: Anti-promastigote activity, strain not given. Format: cell-based. To be noted: Leishmania amazonensis; strain not specified; read-out: IC50 against promastigotes. As for the experimental part: as §2, §3
In data set [13] the test system is amastigotes (L. amazonensis LV78, L. braziliensis UA847, L. donovani HU3, L. donovani 39). As to the kind of experiment: Anti-amastigote activity, strain not given. Format: cell-based. As to conditions: strain not specified; visceral and cutaneous Leishmania; read-out: IC50 against amastigotes. As for the experimental part:
as §4, §5

By IC50 is commonly meant the concentration that inhibits the measured activity by half. On to `COc1ccnc(CN2CCN(CCOc3ccc(-c4cc(=O)c5ccccc5o4)cc3)CC2)c1OC` [FM01b, 2-(4-(2-(4-((3,4-dimethoxypyridin-2-yl)methyl)piperazin-1-yl)ethoxy)phenyl)-4H-chromen-4-one], for which the IC50 is 3.99 ± 0.99 µM in data set [1]; 6.15 ± 1.47 µM in data set [2]; 95.8 ± 4.25 µM in data set [3]; 2.42 ± 0.69 µM in data set [4]; 3.5 ± 1.01 µM in [5]; < 5 µM in data set [6].
`O=C(NCCOCCOc1ccc(-c2cc(=O)c3ccccc3o2)cc1)c1ccncc1` [FM03, N-(2-(2-(4-(4-oxo-4H-chromen-2-yl)phenoxy)ethoxy)ethyl)isonicotinamide]: the 50% inhibitory concentration (IC50) in [1] was > 100 µM; in data set [7], > 100 µM; in data set [2], 66.2 ± 11 µM; in data set [8] it was > 100 µM; in data set [3], > 100 µM; in data set [4] it was > 10 µM. The figures for the IC50 in [9], in [5] and in [10] were > 10 µM, > 9 µM and > 10 µM, respectively.
For the compound `O=c1cc(-c2ccc(OCCOCCNCc3ccccc3)cc2)oc2ccccc12` [FM04, 2-(4-(2-(2-(benzylamino)ethoxy)ethoxy)phenyl)-4H-chromen-4-one], the IC50 in data set [1] is 2.8 ± 0.8 µM; in [7] it was 3.8 ± 0.7 µM; in data set [2], 2.4 ± 0.5 µM; in data set [8], 2.6 ± 0.5 µM; in [3], > 33 µM; in [11] it was 20.3 µM. The IC50 in data set [4] was 3.7 ± 1.7 µM; in data set [5] it was > 5 µM; in data set [10], 6.8 µM; in data set [12], < 5 µM; in [13], < 5 µM.
`CS(=O)(=O)NCCOCCOc1ccc(-c2cc(=O)c3ccccc3o2)cc1` [FM07, N-(2-(2-(4-(4-oxo-4H-chromen-2-yl)phenoxy)ethoxy)ethyl)methanesulfonamide]: the 50% inhibitory concentration (IC50) in [1] was > 100 µM; in data set [7] it was > 100 µM; in data set [2], 38.8 ± 6.9 µM; in data set [8], 21.4 ± 2.6 µM; in data set [3] it was 26 ± 4.1 µM; in [4] it was > 10 µM. Also, the IC50 in [9] and in data set [10] was > 10 µM throughout.
Regarding `COc1ccnc(CN(CCOCCOc2ccc(-c3cc(=O)c4ccccc4o3)cc2)Cc2nccc(OC)c2OC)c1OC` [FM09a, 2-(4-(2-(2-(bis((3,4-dimethoxypyridin-2-yl)methyl)amino)ethoxy)ethoxy)phenyl)-4H-chromen-4-one], the half-inhibitory concentration (IC50) in [1] was 0.32 ± 0.05 µM; in [2], 0.47 ± 0.07 µM; in data set [11], 10.4 ± 0.64 µM; in [4], 0.56 ± 0.21 µM; in data set [6], < 5 µM.
For `O=c1cc(-c2ccc(OCCOCCN(Cc3cccnc3)Cc3cccnc3)cc2)oc2ccccc12` [FM09b, 2-(4-(2-(2-(bis(pyridin-3-ylmethyl)amino)ethoxy)ethoxy)phenyl)-4H-chromen-4-one], the IC50 in data set [6] was < 5 µM.
In the case of `O=c1cc(-c2ccc(OCCOCCN(Cc3ncccc3F)Cc3ncccc3F)cc2)oc2ccccc12` [FM09c, 2-(4-(2-(2-(bis((3-fluoropyridin-2-yl)methyl)amino)ethoxy)ethoxy)phenyl)-4H-chromen-4-one], the half-inhibitory concentration (IC50) in data set [1] was 3.19 ± 0.66 µM; in data set [2] it was 5.09 ± 1.13 µM; in [11], 35.4 ± 1.05 µM; in data set [4], 1.95 ± 0.78 µM; in data set [5], 3.1 µM; in data set [6], < 5 µM.
Regarding `Cc1cccc(CN(CCOCCOc2ccc(-c3cc(=O)c4ccccc4o3)cc2)Cc2cccc(C)n2)n1` [FM09e, 2-(4-(2-(2-(bis((6-methylpyridin-2-yl)methyl)amino)ethoxy)ethoxy)phenyl)-4H-chromen-4-one], the IC50 in data set [1] was 7.41 ± 1.76 µM; in data set [2] it was 4.9 ± 0.78 µM; in [3], 18.8 ± 0.95 µM; in data set [4], 2.4 ± 0.37 µM; in [5], 3.5 ± 0.48 µM; in data set [6], < 5 µM.
Regarding `COc1c(C)cnc(CN(CCOCCOc2ccc(-c3cc(=O)c4ccccc4o3)cc2)Cc2ncc(C)c(OC)c2C)c1C` [FM09i, 2-(4-(2-(2-(bis((4-methoxy-3,5-dimethylpyridin-2-yl)methyl)amino)ethoxy)ethoxy)phenyl)-4H-chromen-4-one], the concentration for half-maximal inhibition (IC50) in data set [1] amounted to 0.08 ± 0.01 µM; in data set [2] it was 0.18 ± 0.07 µM; in [3], 2.28 ± 0.83 µM; in data set [11] it was 4.5 µM; in data set [4], 0.27 ± 0.02 µM; in data set [5], 0.3 ± 0.05 µM. Also, in [6], the half-maximal inhibitory concentration (IC50) is < 5 µM.
With `COCCCOc1ccnc(CN(CCOCCOc2ccc(-c3cc(=O)c4ccccc4o3)cc2)Cc2nccc(OCCCOC)c2C)c1C` [FM09k, 2-(4-(2-(2-(bis((4-(3-methoxypropoxy)-3-methylpyridin-2-yl)methyl)amino)ethoxy)ethoxy)phenyl)-4H-chromen-4-one], the IC50 in data set [1] was determined as 0.16 ± 0.05 µM; in data set [2], 1.06 ± 0.1 µM; in data set [3], 4.7 ± 0.71 µM; in [11] it was 5.3 µM; in data set [4], 0.32 ± 0.02 µM; in data set [5], 0.3 ± 0.04 µM. Moreover, the 50% inhibitory concentration (IC50) in data set [6] is < 5 µM.
For the compound `O=c1cc(-c2ccc(OCCOCCN(Cc3ccc4ccccc4n3)Cc3ccc4ccccc4n3)cc2)oc2ccccc12` [FM09l, 2-(4-(2-(2-(bis(quinolin-2-ylmethyl)amino)ethoxy)ethoxy)phenyl)-4H-chromen-4-one], the half-maximal inhibitory concentration (IC50) in data set [1] is 4.44 ± 1.24 µM; in data set [2], 4.74 ± 0.56 µM; in data set [3], > 100 µM; in data set [11], 67.1 µM; in data set [4] it was 3.03 ± 0.41 µM; in [5] it was 4.5 ± 2.38 µM. Also, the 50% inhibitory concentration (IC50) in [6] is < 5 µM.
Take `CCCCCCCCCCCCCCCCOP(=O)([O-])OCC[N+](C)(C)C` [Miltefosine, reference compound]: the concentration for half-maximal inhibition (IC50) in [1] came to 32.7 ± 26.9 µM; in data set [7], 9.7 ± 1.2 µM; in [2], 5.1 ± 1.4 µM; in data set [8] it was 17.3 ± 2.1 µM; in [11], 75.3 ± 9.4 µM; in data set [4], 32.7 ± 26.9 µM. Besides, the IC50 in data set [9] was 13 ± 1.3 µM; in [10] it was 16 ± 6.4 µM. In data set [4] (IC50 RAW264.7 over IC50 L. amazonensis LV78 amastigotes), the “Selective index (a)/(b)” value amounted to 0.6. The “Selective index (a)/(c)” value in data set [10] (IC50 RAW264.7 over IC50 L. donovani Ld39 amastigotes) is listed as 1.3.
